Earlier results as cited in patent US7906649B2, “Aminocyclohexanes as dipeptidyl peptidase-IV inhibitors for the treatment of diabetes” (Merck Sharp & Dohme Corp., priority 2005, dated 2011).

Key:
hematopoiesis = details: mouse, cyclophosphamide-induced neutropenia
[1] = test system: cardiac allograft survival; details: rats; survival doubled from day 7
[2] = test system: GRF degradation in plasma

Compound: CC(C)[C@H](N)C(=O)N1CCC[C@H]1B(O)O [Val-Boro-Pro]
- effect on hematopoiesis (hematopoiesis): stimulated hematopoiesis

Compound: CC(C)N1CCC(c2ccccc2)(c2ccccc2)CC1 [Prodipine, Pro-Pro-diphenyl-phosphonate]
- cardiac allograft survival [1]: 14 day

Compound: diprotin A
- degradation of GRF to GRF[3-44] in plasma [2]: prevented
